Experimental data reported in ChEMBL document CHEMBL3351870, “Structure elucidation of phase I metabolites of the microtubule perturbagens: ceratamines A and B” (J Nat Prod, 2014).

Experiments:
Liver microsome [1] = assay: Drug metabolism in rat liver microsomes incubated with 10 uM ceratamine A for 60 mins assessed as metabolite level in presence of 1 mM NADPH at pH 7.4 and 37 degC by Quadrupole-time-of-flight mass spectrometry; assay type: ADME; details: pH 7.4, 1 h
Liver microsome [2] = assay: Drug metabolism in rat liver microsomes incubated with 10 uM ceratamine B for 60 mins assessed as metabolite level in presence of 1 mM NADPH at pH 7.4 and 37 degC by Quadrupole-time-of-flight mass spectrometry; assay type: ADME; details: pH 7.4, 1 h
[3] = Retention time by reverse phase HPLC-UV chromatography; assay type: physicochemical
Liver microsome [4] = assay: Drug metabolism in rat liver microsomes incubated with 10 uM ceratamine B for 60 mins assessed as metabolite formation in presence of 1 mM NADPH at pH 7.4 and 37 degC by reverse phase HPLC-UV chromatography; assay type: ADME; details: pH 7.4, 1 h
Liver microsome [5] = assay: Drug metabolism in rat liver microsomes incubated with 10 uM ceratamine A for 60 mins assessed as metabolite formation in presence of 1 mM NADPH at pH 7.4 and 37 degC by reverse phase HPLC-UV chromatography; assay type: ADME; details: pH 7.4, 1 h

| SMILES | Drug metabolism (Liver microsome [1]) | Drug metabolism (Liver microsome [2]) | Retention_time [3] [min] | Drug metabolism (Liver microsome [4]) | Drug metabolism (Liver microsome [5]) |
| --- | --- | --- | --- | --- | --- |
| COc1c(Br)cc(Cc2c3nc(N)nc-3cc[nH]c2=O)cc1Br | metabolite_detected | metabolite_detected | 29.6 |  |  |
| CNc1nc2cc[nH]c(=O)c(Cc3cc(Br)c(OC)c(Br)c3)c-2n1 |  |  |  | metabolite_detected |  |
| CNc1nc2ccn(C)c(=O)c(Cc3cc(Br)c(OC)c(Br)c3)c-2n1 [CERATAMINE A] |  |  |  |  | metabolite_detected |
| CNc1nc2cc[nH]c(=O)c(Cc3cc(Br)c(O)c(Br)c3)c-2n1 | metabolite_detected | metabolite_detected | 20.1 |  |  |
